The text below walks through data of US20030039673A1, “DISINFECTION BY PARTICLE-BOUND AND INS[…]” (priority 1997, published 2003).

A short description of data set [1]: Detergent binding to resin, foaming of supernatant. It is filed as physicochemical. On the set-up: key: foaming presence (+); absence (−). Particulars: 10 mM detergent solution incubated with resin beads.
The subject of data set [2] is viruses. Particulars: even in the presence of plasma proteins; basis of copending application Ser. No. 08/785,984; cited from earlier work.
Data set [3] can be described thus: Detergent binding to resin, foaming of supernatant. Conditions: 10 mM detergent solution incubated with resin beads. Further details: key: foaming presence (+); absence (−). It is filed as physicochemical. The source holds these as a separate data set.
A short description of data set [4]: Detergent binding to resin, foaming of supernatant. The data set is classed as physicochemical. Further details: key: foaming presence (+); absence (−). Conditions: 10 mM detergent solution incubated with resin beads. This is another data set of the same source.
The test system of data set [5] is EMC virus. Briefly: Viral end point assay of EMC-spiked plasma. It is filed as cell-based.
The subject of data set [6] is red blood cells (RBC).

`CCCCCCCCO[C@@H]1O[C@H](CO)[C@@H](O)[C@H](O)[C@H]1O` [OG, n-octyl-B-D-glucopyranoside]: in data set [1], the “foaming of supernatant as indicator of detergent presence, Calbiosorb” value (“foaming of supernatant as indicator … Calbiosorb” below) was “−”. Moreover, the “level effective at inactivating some viruses” value in data set [2] is listed as “about 0.03%”. The “foaming of supernatant as indicator of detergent presence, Purolite” value (from here on “foaming of supernatant as indicator … Purolite”) in data set [3] is on record as “+”. Further, the “foaming of supernatant as indicator of detergent presence, Polystyrene” value (“foaming of supernatant … Polystyrene” for short) in data set [4] is given as “+”.

Consider `CCCCCCCCCCCCCC[N+](C)(C)C.[Br-]` [TTAB, tetradecyltrimethylammonium bromide], for which the “foaming of supernatant as indicator … Calbiosorb” value in data set [1] is “−”. The “foaming of supernatant … Polystyrene” value in data set [4] is on record as “+”.

benzalkonium chloride [BC]: in data set [1], the “foaming of supernatant as indicator … Calbiosorb” value is recorded as “−”. The “foaming of supernatant … Polystyrene” value in data set [4] is given as “+”.

Regarding `CCCCCCCCCCCCOS(=O)(=O)[O-].[Na+]` [SDS, sodium dodecylsulfate], the “foaming of supernatant as indicator … Calbiosorb” value in data set [1] is “−”. In data set [3], the “foaming of supernatant as indicator … Purolite” value is on record as “−”. In addition, in data set [4], the “foaming of supernatant … Polystyrene” value is listed as “+”.

As to `C[C@H](CCC(=O)NCCC[N+](C)(C)CCCS(=O)(=O)[O-])[C@H]1CC[C@H]2[C@@H]3[C@H](O)C[C@@H]4C[C@H](O)CC[C@]4(C)[C@H]3C[C@H](O)[C@]12C` [CHAPS, 3-[(3-Chloramidopropyl)-dimethylammonio]-1-propanesulfanate], the “foaming of supernatant as indicator … Calbiosorb” value in data set [1] is given as “−”. In data set [4], the “foaming of supernatant … Polystyrene” value is “+”.

`C[C@H](CCC(=O)O)[C@H]1CC[C@H]2[C@@H]3CC[C@@H]4C[C@H](O)CC[C@]4(C)[C@H]3C[C@H](O)[C@]12C` [Deoxycholate, deoxycholic acid]: in data set [1], the “foaming of supernatant as indicator … Calbiosorb” value is “−”. Moreover, the “foaming of supernatant as indicator … Purolite” value in data set [3] is “−”. Further, the “foaming of supernatant … Polystyrene” value in data set [4] is listed as “+”.

As to `Oc1cc(Cl)ccc1Oc1ccc(Cl)cc1Cl` [Triclosan, triclosan], the Titer in data set [5] (100 mM triclosan in 2% aqueous Triton X-100, 5 mL added to 50 mL EMC-spiked plasma, 60 min room temperature) is given as 0.

Consider `CCCCCCCC(=O)O` [Caprylate, caprylic acid], for which, in data set [1], the “foaming of supernatant as indicator … Calbiosorb” value is listed as “−”. The “foaming of supernatant as indicator … Purolite” value in data set [3] was “−”. For the same compound, the “foaming of supernatant … Polystyrene” value in data set [4] is reported as “+”.

As to Triton X-100, the “foaming of supernatant as indicator … Calbiosorb” value in data set [1] was “−”. The “virucidal effectiveness compared with Triton plus triclosan” value in data set [5] (0.2% Triton alone) was “not nearly effective as Triton plus triclosan”. For the same compound, in data set [3], the “foaming of supernatant as indicator … Purolite” value is recorded as “+”. In addition, in data set [6], the hemolysis entry is given as “immediate hemolysis”. For the same compound, in data set [4], the “foaming of supernatant … Polystyrene” value is “+”.

As to `CCCCCCCCOC(=O)CC(C(=O)OCCCCCCCC)S(=O)(=O)O` (stereo not drawn) [DSS, dioctyl sulfosuccinate], in data set [1], the “foaming of supernatant as indicator … Calbiosorb” value was “−”. Further, in data set [3], the “foaming of supernatant as indicator … Purolite” value is recorded as “−”. In addition, the “foaming of supernatant … Polystyrene” value in data set [4] is on record as “+”.

Consider `C[C@H](CCC(=O)NCCC[N+](C)(C)CC(O)CS(=O)(=O)[O-])[C@H]1CC[C@H]2[C@@H]3[C@H](O)C[C@@H]4C[C@H](O)CC[C@]4(C)[C@H]3C[C@H](O)[C@]12C` (stereo partly drawn) [CHAPSO, 3-[(3-Chloramidopropyl)-dimethylammonio]-2-hydroxyl 1-propanesulfanate], for which the “foaming of supernatant as indicator … Calbiosorb” value in data set [1] is listed as “−”. Besides, the “foaming of supernatant … Polystyrene” value in data set [4] is “+”.

As for `C[C@H](CCC(=O)O)[C@H]1CC[C@H]2[C@@H]3[C@H](O)C[C@@H]4C[C@H](O)CC[C@]4(C)[C@H]3C[C@H](O)[C@]12C` [Cholate, cholic acid], in data set [1], the “foaming of supernatant as indicator … Calbiosorb” value is “−”. Moreover, the “foaming of supernatant as indicator … Purolite” value in data set [3] is “−”. Moreover, in data set [4], the “foaming of supernatant … Polystyrene” value is recorded as “+”.
